# Calls of active or inactive are those of the source. The rule behind the calls is not given here.
# What was measured:
# [1] = Acute toxicity in mouse assessed as damage in heart at 500 mg/kg, IG qd treated for 7 days by H and E staining based analysis; format: organism-based; conditions: in vivo, po, 168 h, time 7 day
# [2] = Solubility of compound in 0.01 M PBS at pH 7.4 assessed as fold increase equilibrated for 12 hrs by UV spectrophotometry relative to BI 2536; format: physicochemical; conditions: buffer, pH 7.4, 12 h
# [3] = target: Serine/threonine-protein kinase PLK1 (Homo sapiens, UniProt P53350); assay: Inhibition of human PLK1 at 10 uM by kinome selectivity profiling analysis relative to control
# [4] = target: Serine/threonine-protein kinase PLK2 (Homo sapiens, UniProt Q9NYY3); assay: Inhibition of human PLK2 assessed as residual activity at 10 uM by kinome selectivity profiling analysis relative to control
# [5] = Acute toxicity in mouse assessed as effect on behaviour at 500 mg/kg, IG qd treated for 7 days; format: organism-based; conditions: in vivo, po, 168 h, time 7 day
# Homo sapiens = organism: Homo sapiens; assay: Inhibition of human HRI assessed as residual activity at 10 uM by kinome selectivity profiling analysis relative to control
# Cytochrome P450 2C19 = Cytochrome P450 2C19 (Homo sapiens, UniProt P33261); assay: Inhibition of CYP2C19 in human liver microsomes using S-mephenytoin as substrate preincubated with compound followed by substrate addition measured after 10 mins in presence of NADPH by LC-MS/MS analysis; format: ADME, Microsome
# PC-9 = assay: cells; conditions: Homo sapiens
# [6] = target: Serine/threonine-protein kinase PLK4 (Homo sapiens) (UniProt O00444); assay: Inhibition of human PLK4 assessed as residual activity at 10 uM by kinome selectivity profiling analysis
# NCI-H460 = assay: cells; conditions: Homo sapiens
# [7] = Toxicity in BALB/c mouse xenografted with human K562 cells assessed as adverse effects at 10 to 20 mg/kg, IG for 11 days treated on every 3 to 4 days; format: organism-based; conditions: in vivo, po, 264 h, dose 10-20 mg/kg, time 11 day
# HL-60 = assay: cells; conditions: Homo sapiens
# [8] = Metabolic stability in mouse liver microsomes assessed as intrinsic clearance preincubated for 5 mins followed by NADPH addition by LC-MS/MS analysis; format: ADME, Microsome; conditions: read-out: CLH
# [9] = target: Serine/threonine-protein kinase PLK4 (Homo sapiens) (UniProt O00444); assay: Inhibition of human PLK4 assessed as residual activity at 10 uM by kinome selectivity profiling analysis relative to control
# [10] = C0 in C57BL/6 mouse at 1 mg/kg, iv measured for 0.5 to 12 htr by LC-MS/MS analysis; format: ADME, organism-based; conditions: in vivo, time 0.5-12 hrs
# [11] = Toxicity in BALB/c mouse xenografted with human K562 cells assessed as change in body weight at 10 to 20 mg/kg, IG for 11 days treated on every 3 to 4 days; format: organism-based; conditions: in vivo, po, 264 h, dose 10-20 mg/kg, time 11 day
# [12] = Cytotoxicity against HEK293T cells assessed as cell viability at 30 uM by CCK8 assay relative to control; format: toxicity, cell-based, HEK-293T; conditions: human, read-out: Activity
# Cytochrome P450 2D6 = Cytochrome P450 2D6 (Homo sapiens, UniProt P10635); assay: Inhibition of CYP2D6 in human liver microsomes using dextromethorphan as substrate preincubated with compound followed by substrate addition measured after 10 mins in presence of NADPH by LC-MS/MS analysis; format: ADME, Microsome
# [13] = Acute toxicity in mouse assessed as damage in spleen at 500 mg/kg, IG qd treated for 7 days by H and E staining based analysis; format: organism-based; conditions: in vivo, po, 168 h, time 7 day
# [14] = AUC (0 to infinity) in C57BL/6 mouse at 1 mg/kg, iv measured for 0.5 to 12 htr by LC-MS/MS analysis; format: ADME, organism-based; conditions: in vivo, time 0.5-12 hrs
# [15] = Acute hematopoietic toxicity in mouse assessed as effect on biochemical indices at 500 mg/kg, IG qd treated for 7 days; format: organism-based; conditions: in vivo, po, 168 h, time 7 day
# [16] = AUC (0 to t) in C57BL/6 mouse at 1 mg/kg, iv measured for 0.5 to […] htr by LC-MS/MS analysis; format: ADME, organism-based; conditions: in vivo, time 0.5-12 hrs
# [17] = target: Eukaryotic translation initiation factor 2-alpha kinase 3 (Homo sapiens) (UniProt Q9NZJ5); assay: Inhibition of human PEK assessed as residual activity at 10 uM by kinome selectivity profiling analysis relative to control
# HEK-293T [18] = assay: Effect on mitochondrial membrane potential in HEK293T cells at 10 uM incubated for 24 hrs by MitoTracker Red probe based analysis; format: toxicity, cell-based; conditions: human
# [19] = Cmax in C57BL/6 mouse at 1 mg/kg, iv measured for 0.5 to […] htr by LC-MS/MS analysis; format: ADME, organism-based; conditions: in vivo, time 0.5-12 hrs
# Cytochrome P450 3A4 = Cytochrome P450 3A4 (Homo sapiens, UniProt P08684); assay: Inhibition of CYP3A4 in human liver microsomes using testosterone as substrate preincubated with compound followed by substrate addition measured after 10 mins in presence of NADPH by LC-MS/MS analysis; format: ADME, Microsome
# [20] = Selectivity ratio of IC50 for inhibition of human PLK2 using ATF2 as substrate to IC50 for inhibition of human PLK1 using ATF2 as substrate
# [21] = Metabolic stability in human liver microsomes assessed as intrinsic clearance in microsome measured per mg protein preincubated for 5 mins followed by NADPH addition by LC-MS/MS analysis; format: ADME; conditions: read-out: CLH
# [22] = Acute hematopoietic toxicity in mouse assessed as effect on red blood cells at 500 mg/kg, IG qd treated for 7 days; format: organism-based; conditions: in vivo, po, 168 h, time 7 day
# [23] = target: Voltage-gated inwardly rectifying potassium channel KCNH2 (Homo sapiens, UniProt Q12809); assay: Inhibition of hERG transfected in CHO cells; format: toxicity, cell-based
# KG-1 = assay: cells; conditions: Homo sapiens
# [24] = target: Serine/threonine-protein kinase PLK3 (Homo sapiens, UniProt Q9H4B4); assay: Inhibition of human PLK3 using ATF2 as substrate incubated for 40 mins in presence of [gamma-33P]ATP/Mg acetate by scintillation counting analysis
# HEK-293T [25] = assay: Cytotoxicity against HEK293T cells by CCK8 assay; format: toxicity, cell-based; conditions: human, dose 0.1-30 µM
# Cytochrome P450 2B6 = Cytochrome P450 2B6 (Homo sapiens, UniProt P20813); assay: Inhibition of CYP2B6 in human liver microsomes using bupropion as substrate preincubated with compound followed by substrate addition measured after 10 mins in presence of NADPH by LC-MS/MS analysis; format: ADME, Microsome
# [26] = Stability of compound in human hepatocytes; format: ADME, cell-based, Hepatocyte
# K562 = assay: cells; conditions: Homo sapiens
# [27] = Selectivity ratio of IC50 for inhibition of human PLK3 using ATF2 as substrate to IC50 for inhibition of human PLK1 using ATF2 as substrate
# [28] = Acute hematopoietic toxicity in mouse assessed as effect on white blood cells at 500 mg/kg, IG qd treated for 7 days; format: organism-based; conditions: in vivo, po, 168 h, time 7 day
# [29] = MRT (0 to t) in C57BL/6 mouse at 1 mg/kg, iv measured for 0.5 to 12 htr by LC-MS/MS analysis; format: ADME, organism-based; conditions: in vivo, time 0.5-12 hrs
# [30] = Metabolic stability in dog liver microsomes assessed as intrinsic clearance in microsome measured per mg protein preincubated for 5 mins followed by NADPH addition by LC-MS/MS analysis; format: ADME, Canis lupus familiaris; conditions: read-out: CLH
# Chain of Serine/threonine-protein kinase PLK4 (Homo sapiens) (O00444 whole entry): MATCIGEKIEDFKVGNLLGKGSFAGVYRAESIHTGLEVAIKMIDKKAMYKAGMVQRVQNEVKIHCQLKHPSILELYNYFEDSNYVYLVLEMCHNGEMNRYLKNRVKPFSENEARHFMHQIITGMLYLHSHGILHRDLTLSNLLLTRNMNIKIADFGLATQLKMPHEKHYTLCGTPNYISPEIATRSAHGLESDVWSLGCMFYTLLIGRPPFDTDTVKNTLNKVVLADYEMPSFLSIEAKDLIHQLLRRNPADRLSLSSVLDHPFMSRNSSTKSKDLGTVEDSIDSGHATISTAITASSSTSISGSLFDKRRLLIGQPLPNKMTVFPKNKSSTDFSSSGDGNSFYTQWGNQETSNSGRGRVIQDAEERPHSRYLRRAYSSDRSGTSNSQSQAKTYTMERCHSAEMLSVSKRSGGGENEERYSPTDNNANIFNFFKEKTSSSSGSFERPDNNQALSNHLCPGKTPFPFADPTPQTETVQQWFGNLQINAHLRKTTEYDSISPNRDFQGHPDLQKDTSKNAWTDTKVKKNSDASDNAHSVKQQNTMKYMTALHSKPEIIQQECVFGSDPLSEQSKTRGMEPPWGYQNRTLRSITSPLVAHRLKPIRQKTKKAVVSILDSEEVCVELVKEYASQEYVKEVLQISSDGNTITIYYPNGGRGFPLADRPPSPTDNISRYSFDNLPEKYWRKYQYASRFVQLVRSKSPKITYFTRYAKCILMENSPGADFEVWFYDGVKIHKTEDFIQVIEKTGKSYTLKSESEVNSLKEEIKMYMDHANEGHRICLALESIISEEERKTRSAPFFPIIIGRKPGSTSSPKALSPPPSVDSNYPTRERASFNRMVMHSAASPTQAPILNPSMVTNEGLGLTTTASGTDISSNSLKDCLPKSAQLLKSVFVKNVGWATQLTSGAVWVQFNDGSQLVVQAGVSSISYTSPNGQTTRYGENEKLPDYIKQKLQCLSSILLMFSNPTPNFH
# Chain of Serine/threonine-protein kinase PLK3 (Q9H4B4 whole entry): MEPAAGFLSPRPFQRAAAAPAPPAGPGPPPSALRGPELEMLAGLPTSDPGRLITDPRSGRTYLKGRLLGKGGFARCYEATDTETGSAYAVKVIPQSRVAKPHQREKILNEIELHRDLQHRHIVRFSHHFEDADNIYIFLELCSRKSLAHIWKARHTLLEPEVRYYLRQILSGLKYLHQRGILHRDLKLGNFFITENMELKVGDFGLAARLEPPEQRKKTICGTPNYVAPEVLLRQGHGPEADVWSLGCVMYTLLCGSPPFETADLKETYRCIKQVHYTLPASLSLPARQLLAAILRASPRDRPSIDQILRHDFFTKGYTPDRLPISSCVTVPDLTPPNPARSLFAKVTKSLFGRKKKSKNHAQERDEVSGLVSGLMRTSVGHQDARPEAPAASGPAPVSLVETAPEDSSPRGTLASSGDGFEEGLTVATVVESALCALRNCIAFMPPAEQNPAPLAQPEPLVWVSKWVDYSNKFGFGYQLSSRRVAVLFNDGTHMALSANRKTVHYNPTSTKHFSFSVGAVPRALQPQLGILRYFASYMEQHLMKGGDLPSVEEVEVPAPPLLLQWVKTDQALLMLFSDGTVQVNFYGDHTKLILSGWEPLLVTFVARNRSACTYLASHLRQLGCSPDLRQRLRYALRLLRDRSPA
# Chain of Eukaryotic translation initiation factor 2-alpha kinase 3 (Homo sapiens) (Q9NZJ5 whole entry): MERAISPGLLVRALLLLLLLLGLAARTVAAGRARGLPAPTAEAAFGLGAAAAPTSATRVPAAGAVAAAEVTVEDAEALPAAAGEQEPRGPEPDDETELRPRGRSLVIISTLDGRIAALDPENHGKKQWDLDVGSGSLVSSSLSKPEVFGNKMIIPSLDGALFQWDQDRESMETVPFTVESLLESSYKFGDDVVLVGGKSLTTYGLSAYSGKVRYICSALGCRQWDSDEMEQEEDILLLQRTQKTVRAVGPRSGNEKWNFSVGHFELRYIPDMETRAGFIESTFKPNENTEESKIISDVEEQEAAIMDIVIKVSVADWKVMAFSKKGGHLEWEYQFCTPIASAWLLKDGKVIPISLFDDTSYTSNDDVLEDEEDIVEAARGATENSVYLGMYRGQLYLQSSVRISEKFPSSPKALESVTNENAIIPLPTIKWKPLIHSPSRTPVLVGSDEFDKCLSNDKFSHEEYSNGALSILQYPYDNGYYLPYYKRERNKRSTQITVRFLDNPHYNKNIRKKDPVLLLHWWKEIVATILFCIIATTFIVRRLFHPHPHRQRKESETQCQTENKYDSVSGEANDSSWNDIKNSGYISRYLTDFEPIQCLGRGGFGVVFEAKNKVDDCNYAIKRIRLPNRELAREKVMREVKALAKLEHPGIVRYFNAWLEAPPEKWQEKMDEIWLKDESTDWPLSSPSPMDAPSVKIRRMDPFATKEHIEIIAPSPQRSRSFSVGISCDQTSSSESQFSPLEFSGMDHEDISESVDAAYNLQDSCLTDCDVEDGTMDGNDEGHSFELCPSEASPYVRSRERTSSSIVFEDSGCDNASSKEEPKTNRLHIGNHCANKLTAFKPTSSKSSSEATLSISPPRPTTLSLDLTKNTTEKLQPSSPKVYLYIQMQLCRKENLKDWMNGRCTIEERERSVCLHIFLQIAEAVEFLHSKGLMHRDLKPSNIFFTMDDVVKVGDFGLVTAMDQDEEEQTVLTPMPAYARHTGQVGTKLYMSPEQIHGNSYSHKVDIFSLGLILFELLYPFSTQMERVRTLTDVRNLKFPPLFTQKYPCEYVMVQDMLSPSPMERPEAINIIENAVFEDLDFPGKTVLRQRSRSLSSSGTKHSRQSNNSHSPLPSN
# Chain of Voltage-gated inwardly rectifying potassium channel KCNH2 (Q12809 whole entry): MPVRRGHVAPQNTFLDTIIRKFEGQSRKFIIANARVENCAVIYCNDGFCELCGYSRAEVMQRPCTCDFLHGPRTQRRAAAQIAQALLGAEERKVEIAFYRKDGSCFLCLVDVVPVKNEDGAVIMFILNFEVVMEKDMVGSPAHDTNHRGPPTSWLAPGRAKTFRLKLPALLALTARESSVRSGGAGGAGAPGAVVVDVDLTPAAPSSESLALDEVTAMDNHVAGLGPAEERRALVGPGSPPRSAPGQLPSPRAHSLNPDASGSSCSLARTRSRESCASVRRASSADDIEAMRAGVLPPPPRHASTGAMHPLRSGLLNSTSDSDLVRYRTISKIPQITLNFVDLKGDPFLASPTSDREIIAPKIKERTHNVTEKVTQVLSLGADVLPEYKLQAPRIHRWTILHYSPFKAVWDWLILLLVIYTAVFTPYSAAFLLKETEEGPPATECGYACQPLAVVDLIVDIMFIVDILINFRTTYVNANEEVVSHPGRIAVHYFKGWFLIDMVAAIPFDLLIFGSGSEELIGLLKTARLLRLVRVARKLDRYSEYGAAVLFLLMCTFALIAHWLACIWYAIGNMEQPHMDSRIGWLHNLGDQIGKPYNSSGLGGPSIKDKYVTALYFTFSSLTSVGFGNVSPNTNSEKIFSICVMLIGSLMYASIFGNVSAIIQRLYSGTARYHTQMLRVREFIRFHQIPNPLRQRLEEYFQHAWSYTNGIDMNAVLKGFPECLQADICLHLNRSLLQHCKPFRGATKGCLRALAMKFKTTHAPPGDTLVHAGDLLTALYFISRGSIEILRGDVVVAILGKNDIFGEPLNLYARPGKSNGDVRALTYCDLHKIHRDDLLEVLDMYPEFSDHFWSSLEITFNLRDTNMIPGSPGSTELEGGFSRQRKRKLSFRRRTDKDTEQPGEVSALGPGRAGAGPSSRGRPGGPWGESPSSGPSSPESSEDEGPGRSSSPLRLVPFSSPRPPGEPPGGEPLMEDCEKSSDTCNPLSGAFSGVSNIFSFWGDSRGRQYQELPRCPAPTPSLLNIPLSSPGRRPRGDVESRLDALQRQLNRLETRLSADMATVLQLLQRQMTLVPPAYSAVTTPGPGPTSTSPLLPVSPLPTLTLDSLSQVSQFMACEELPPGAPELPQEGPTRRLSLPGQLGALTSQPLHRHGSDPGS
# Chain of Cytochrome P450 3A4 (P08684 whole entry): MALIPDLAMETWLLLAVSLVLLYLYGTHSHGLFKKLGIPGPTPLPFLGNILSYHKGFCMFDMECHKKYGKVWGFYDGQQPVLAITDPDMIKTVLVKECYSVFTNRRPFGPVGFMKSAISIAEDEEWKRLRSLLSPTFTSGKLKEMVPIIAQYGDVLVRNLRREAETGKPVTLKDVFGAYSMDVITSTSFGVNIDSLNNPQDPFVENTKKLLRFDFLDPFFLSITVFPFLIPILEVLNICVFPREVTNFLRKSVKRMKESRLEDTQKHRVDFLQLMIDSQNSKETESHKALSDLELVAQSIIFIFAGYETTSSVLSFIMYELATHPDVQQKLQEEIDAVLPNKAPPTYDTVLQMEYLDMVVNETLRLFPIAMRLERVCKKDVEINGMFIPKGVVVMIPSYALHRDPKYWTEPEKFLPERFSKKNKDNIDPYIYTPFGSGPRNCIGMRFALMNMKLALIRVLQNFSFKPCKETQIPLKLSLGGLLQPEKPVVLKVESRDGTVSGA
# Chain of Cytochrome P450 2B6 (P20813 whole entry): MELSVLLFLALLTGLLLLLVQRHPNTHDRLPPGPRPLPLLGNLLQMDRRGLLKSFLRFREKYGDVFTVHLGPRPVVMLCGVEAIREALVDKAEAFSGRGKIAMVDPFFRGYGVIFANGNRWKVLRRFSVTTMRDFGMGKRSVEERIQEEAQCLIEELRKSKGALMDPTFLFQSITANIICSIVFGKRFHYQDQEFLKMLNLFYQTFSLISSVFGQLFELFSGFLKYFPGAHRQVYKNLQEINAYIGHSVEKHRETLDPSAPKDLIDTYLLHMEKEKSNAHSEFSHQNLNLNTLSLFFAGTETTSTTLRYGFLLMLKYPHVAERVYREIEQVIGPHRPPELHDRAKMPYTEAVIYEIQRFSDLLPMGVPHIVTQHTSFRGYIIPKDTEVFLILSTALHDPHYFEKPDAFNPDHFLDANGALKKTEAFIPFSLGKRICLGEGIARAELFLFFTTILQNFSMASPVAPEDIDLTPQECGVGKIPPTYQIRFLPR
smiles,measurement,setting,value
CC[C@@H]1C(=O)N(C)c2cnc(Nc3cc(N4CCN(C)CC4)cc(Cl)c3OCCCO)nc2N1C1CCCC1,Activity,[1],Non-toxic
same,fold change (FC),[2],> 2
same,inhibition,[3],100%
same,Activity,[4],48%
same,Activity,[5],Non-toxic
same,Activity,Homo sapiens,54%
same,IC50,Cytochrome P450 2C19,1900 nM
same,IC50,PC-9,775 nM
same,inhibition,[6],inactive
same,IC50,NCI-H460,12 nM
same,Activity,[7],Non-toxic
same,IC50,HL-60,59 nM
same,CLint scaled,[8],829 mL/min/kg
same,Activity,[9],104%
same,C0,[10],328 ng/mL
same,Activity,[11],Non-toxic
same,viability at 30 µM,[12],68%
same,IC50,Cytochrome P450 2D6,> 10000 nM
same,Activity,[13],Non-toxic
same,AUC(0-inf),[14],183 ng·h/mL
same,Activity,[15],Non-toxic
same,AUC(0-t),[16],181 ng·h/mL
same,Activity,[17],80%
same,Activity,HEK-293T [18],Non-toxic
same,Cmax,[19],264 ng/mL
same,IC50,Cytochrome P450 3A4,> 10000 nM
same,ratio,[20],> 601
same,microsomal CLint,[21],68.3 µL/min/mg
same,Activity,[22],Non-toxic
same,IC50,[23],44200 nM
same,IC50,KG-1,> 10000 nM
same,IC50,[24],3950 nM
same,Activity,HEK-293T [25],Dose-dependent-effect
same,IC50,Cytochrome P450 2B6,> 10000 nM
same,Stability,[26],Stable
same,IC50,K562,0.08 nM
same,ratio,[27],197
same,Activity,[28],Non-toxic
same,MRT last,[29],39.6 min
same,microsomal CLint,[30],190 µL/min/mg

# Source: ChEMBL document CHEMBL6153147 (J Med Chem, 2025)
